For 21 compounds, IC50 results are on record in patent publication US20260274833A1 (NiKang Therapeutics, Inc., priority 2022, published 2026).

Usually IC50 stands for the concentration at which inhibition is half-maximal.

In the experiment the target is T1, CDK2 (Homo sapiens, UniProt P24941).
T1 construct: endogenous in cells; host or cells: OVCAR3 cells
In words: Phospho-RB measurement in OVCAR3 cells (HTRF phospho-RB cellular kit). It counts as cell-based. The settings on record: inhibition of RB phosphorylation at S807/811 (HTRF, TR-FRET ratio 665/620), 24 h compound treatment, 0.3 to 10,000 nM. An outline of the steps:
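IC50 came from a four-parameter logistic fit of the DMSO-normalized TR-FRET ratio (665/620 nm). That ratio reflects RB phosphorylation at S807/811, read with an HTRF antibody pair 4 h after adding lysate at room temperature.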
(In general: In TR-FRET formats the signal depends on donor and acceptor labels being close together.)
Regarding `CS(=O)(=O)[C@H]1CC[C@H](Nc2nccc(-c3sc(C4(C(F)(F)F)CC4)nc3-c3cccc(NS(=O)(=O)N4CCc5ccccc54)c3F)n2)CC1` [Example 284, N-(2-fluoro-3-(5-(2-(((11,4r)-4-(methylsulfonyl)cyclohexyl)amino)pyrimidin-4-yl)-2-(1-(trifluoromethyl)-cyclopropyl)thiazol-4-yl)phenyl)-indoline-1-sulfonamide], the IC50 came out at 384 nM.

As to `CC(C)(C)c1nc(-c2cccc(NS(=O)(=O)N3Cc4ccc(C(F)(F)F)cc4C3)c2F)c(-c2ccnc(NC3CCN(S(C)(=O)=O)CC3)n2)s1` [Example 243, N-(3-(2-(tert-butyl)-5-(2-((1-(methylsulfonyl)-piperidin-4-yl)amino)-pyrimidin-4-yl)thiazol-4-yl)-2-fluoro-phenyl)-5-(trifluoromethyl)-isoindoline-2-sulfonamide], the IC50 amounted to 1200 nM.

With `CC(C)(C)c1nc(-c2cccc(NS(=O)(=O)N3CCc4ccccc4C3)c2F)c(-c2ccnc(NC3CCN(S(=O)(=O)N4CCNCC4)CC3)n2)s1` [Example 114, N-(3-(2-(tert-butyl)-5-(2-((1-(piperazin-1-ylsulfonyl)piperidin-4-yl)amino)-pyrimidin-4-yl)thiazol-4-yl)-2-fluoro-phenyl)-3,4-dihydro-isoquinoline-2(1H)-sulfonamide], the IC50 stood at 276 nM.

Take `CC(C)(c1nc(-c2cccc(NS(=O)(=O)N3CCc4ccc(C(F)(F)F)cc43)c2F)c(-c2ccnc(N[C@H]3CC[C@H](S(C)(=O)=O)CC3)n2)s1)C(F)(F)F` [Example 290, N-(2-fluoro-3-(5-(2-(((1r,4r)-4-(methylsulfonyl)cyclohexyl)amino)-pyrimidin-4-yl)-2-(1,1,1-trifluoro-2-methylpropan-2-yl)thiazol-4-yl)phenyl)-6-(trifluoromethyl) indoline-1-sulfonamide]: the half-inhibitory concentration (IC50) came out at 298 nM.

Take `N#Cc1ccc2c(c1)N(S(=O)(=O)Nc1cccc(-c3nc(N4C5CCC4COC5)sc3-c3ccnc(NC4CC5(C4)CS(=O)(=O)C5)n3)c1F)CC2` [Example 6, N-(3-(2-(3-oxa-8-azabicyclo[3.2.1]octan-8-yl)-5-(2-((2,2-dioxido-2-thiaspiro-[3.3]heptan-6-yl)amino)pyrimidin-4-yl)thiazol-4-yl)-2-fluorophenyl)-6-cyanoindoline-1-sulfonamide]: the IC50 was determined as 109 nM.

For `O=S1(=O)CC2(CC(Nc3nccc(-c4sc(C56CC(C5)C6)nc4-c4cccc(NS(=O)(=O)N5CCOCc6ccccc65)c4F)n3)C2)C1` [Example 273, N-(3-(2-(bicyclo [1.1.1]pentan-1-yl)-5-(2-((2,2-dioxido-2-thiaspiro[3.3]heptan-6-yl)amino)-pyrimidin-4-yl)thiazol-4-yl)-2-fluorophenyl)-2,3-dihydrobenzo-[e][1,4]oxazepine-1(5H)-sulfonamide], the IC50 came out at 3280 nM.

For `CC(C)(C)c1nc(-c2cccc(NS(=O)(=O)N3Cc4cccc(Oc5ccccc5)c4C3)c2F)c(-c2ccnc(NC3CC4(C3)CS(=O)(=O)C4)n2)s1` [Example 210, N-(3-(2-(tert-butyl)-5-(2-((2,2-dioxido-2-thiaspiro[3.3]heptan-6-yl)amino)-pyrimidin-4-yl)thiazol-4-yl)-2-fluoro-phenyl)-4-phenoxy-isoindoline-2-sulfonamide], the IC50 was determined as 505 nM.

`CC(C)(C)c1nc(-c2cccc(NS(=O)(=O)N3Cc4ccncc4C3)c2F)c(-c2ccnc(NC3CC4(C3)CS(=O)(=O)C4)n2)s1` [Example 187, N-(3-(2-(tert-butyl)-5-(2-((2,2-dioxido-2-thiaspiro[3.3]heptan-6-yl)amino)-pyrimidin-4-yl)thiazol-4-yl)-2-fluoro-phenyl)-1,3-dihydro-2H-pyrrolo[3,4-c]-pyridine-2-sulfonamide]: the half-inhibitory concentration (IC50) came out at 194 nM.

With `O=S1(=O)CC2(CC(Nc3nccc(-c4sc(C56CC(C5)C6)nc4-c4cccc(NS(=O)(=O)N5CCc6ccc(C(F)(F)F)cc65)c4F)n3)C2)C1` [Example 19, N-(3-(2-(bicyclo [1.1.1]pentan-1-yl)-5-(2-((2,2-dioxido-2-thiaspiro[3.3]heptan-6-yl)amino)-pyrimidin-4-yl)thiazol-4-yl)-2-fluorophenyl)-6-(trifluoromethyl)-indoline-1-sulfonamide], the IC50 amounted to 120 nM.

Consider `CN(C)CCN(C)S(=O)(=O)N1CCC(Nc2nccc(-c3sc(C(C)(C)C)nc3-c3cccc(NS(=O)(=O)N4CCNc5ccccc5C4)c3F)n2)CC1` [Example 139, N-(3-(2-(tert-butyl)-5-(2-((1-(N-(2-(dimethyl-amino)ethyl)-N-methyl-sulfamoyl)piperidin-4-yl)amino)-pyrimidin-4-yl)thiazol-4-yl)-2-fluoro-phenyl)-1,2,3,5-tetrahydro-4H-benzo[e][1,4] diazepine-4-sulfonamide], for which the IC50 amounted to 291 nM.

For `O=S1(=O)CC2(CC(Nc3nccc(-c4sc(C56CC(C(F)(F)F)(C5)C6)nc4-c4cccc(NS(=O)(=O)N5CCc6ccccc65)c4F)n3)C2)C1` [Example 281], the IC50 amounted to 739 nM.

Consider `CC(C)(C)c1nc(-c2cccc(NS(=O)(=O)N3CCNc4ccccc43)c2F)c(-c2ccnc(NC3CCN(S(=O)(=O)N4CCNCC4)CC3)n2)s1` [Example 129, N-(3-(2-(tert-butyl)-5-(2-((1-(piperazin-1-ylsulfonyl)piperidin-4-yl)amino)-pyrimidin-4-yl)thiazol-4-yl)-2-fluoro-phenyl)-3,4-dihydroquinoxaline-1(2H)-sulfonamide], for which the IC50 was found to be 328 nM.

As for `CNCCOc1cccc2c1CCN2S(=O)(=O)Nc1cccc(-c2nc(C(C)(C)C)sc2-c2ccnc(NC3CCN(S(C)(=O)=O)CC3)n2)c1F` [Example 181, N-(3-(2-(tert-butyl)-5-(2-((1-(methylsulfonyl)-piperidin-4-yl)amino)-pyrimidin-4-yl)thiazol-4-yl)-2-fluoro-phenyl)-4-(2-(methylamino)-ethoxy)-indoline-1-sulfonamide], the IC50 amounted to 1890 nM.

Turning to `CC1(S(C)(=O)=O)CCC(Nc2nccc(-c3sc(C45CC(C(F)(F)F)(C4)C5)nc3-c3cccc(NS(=O)(=O)N4CCc5ccccc54)c3F)n2)CC1` (stereo not drawn) [Example 285, N-(2-fluoro-3-(5-(2-((4-methyl-4-(methylsulfonyl)cyclohexyl)amino)pyrimidin-4-yl)-2-(3-(trifluoromethyl)bicyclo-[1.1.1]pentan-1-yl)thiazol-4-yl)phenyl)-indoline-1-sulfonamide], the IC50 came to 3060 nM.

For `CN(C)CCN(C)S(=O)(=O)N1CCC(Nc2nccc(-c3sc(C(C)(C)C)nc3-c3cccc(NS(=O)(=O)N4Cc5ccncc5C4)c3F)n2)CC1` [Example 157, N-(3-(2-(tert-butyl)-5-(2-((1-(N-(2-(dimethyl-amino)ethyl)-N-methylsulfamoyl)piperidin-4-yl)amino)-pyrimidin-4-yl)thiazol-4-yl)-2-fluoro-phenyl)-1,3-dihydro-2H-pyrrolo [3,4-c]-pyridine-2-sulfonamide], the IC50 was found to be 191 nM.

For the compound `CC1(c2nc(-c3cccc(NS(=O)(=O)N4Cc5ccc(CO)cc5C4)c3F)c(-c3ccnc(N[C@H]4[C@@H]5CS(=O)(=O)C[C@@H]54)n3)s2)CCOCC1` [Example 12, N-(3-(5-(2-(((1R, 5S,6r)-3,3-dioxido-3-thiabicyclo[3.1.0]hexan-6-yl)amino)-pyrimidin-4-yl)-2-(4-methyltetrahydro-2H-pyran-4-yl)thiazol-4-yl)-2-fluorophenyl)-5-(hydroxymethyl)-isoindoline-2-sulfonamide], the IC50 came out at 47.8 nM.

As to `Cn1ncc2c1CN(S(=O)(=O)Nc1cccc(-c3nc(C(C)(C)C)sc3-c3ccnc(NC4CCN(S(C)(=O)=O)CC4)n3)c1F)C2` [Example 85, N-(3-(2-(tert-butyl)-5-(2-((1-(methylsulfonyl)-piperidin-4-yl)amino)-pyrimidin-4-yl)thiazol-4-yl)-2-fluoro-phenyl)-1-methyl-4,6-dihydro-pyrrolo[3,4-c]pyrazole-5(1H)-sulfonamide], the IC50 turned out to be 394 nM.

In the case of `CC1(c2nc(-c3cccc(NS(=O)(=O)N4Cc5ccncc5C4)c3F)c(-c3ccnc(NC4CC5(C4)CS(=O)(=O)C5)n3)s2)CCOCC1` [Example 209, N-(3-(5-(2-((2,2-dioxido-2-thiaspiro-[3.3]-heptan-6-yl)amino)pyrimidin-4-yl)-2-(4-methyltetrahydro-2H-pyran-4-yl)thiazol-4-yl)-2-fluorophenyl)-1,3-dihydro-2H-pyrrolo [3,4-c]-pyridine-2-sulfonamide], the IC50 amounted to 350 nM.

In the case of `CN1CC2CCC(C1)N2c1nc(-c2cccc(NS(=O)(=O)N3Cc4cccc(C(F)F)c4C3)c2F)c(-c2ccnc(NC3CC4(C3)CS(=O)(=O)C4)n2)s1` [Example 18, 4-(difluoromethyl)-N-(3-(5-(2-((2,2-dioxido-2-thiaspiro [3.3]heptan-6-yl)amino)pyrimidin-4-yl)-2-(3-methyl-3,8-diazabicyclo [3.2.1]octan-8-yl)thiazol-4-yl)-2-fluorophenyl)-isoindoline-2-sulfonamide], the IC50 stood at 24.8 nM.

As to `CN(C)C(=O)c1cccc2c1CN(S(=O)(=O)Nc1cccc(-c3nc(C(C)(C)C)sc3-c3ccnc(NC4CCN(S(C)(=O)=O)CC4)n3)c1F)C2` [Example 163, 2-(N-(3-(2-(tert-butyl)-5-(2-((1-(methyl-sulfonyl)piperidin-4-yl)amino)pyrimidin-4-yl)thiazol-4-yl)-2-fluorophenyl)-sulfamoyl)-N, N-dimethyliso-indoline-4-carboxamide], the IC50 stood at 2430 nM.

Turning to `O=S1(=O)CC2(CC(Nc3nccc(-c4sc(C56CC(C5)C6)nc4-c4cccc(NS(=O)(=O)N5Cc6cccc(OC(F)F)c6C5)c4F)n3)C2)C1` [Example 24, N-(3-(2~(bicyclo [1.1.1]pentan-1-yl)-5-(2-((2,2-dioxido-2-thiaspiro[3.3]heptan-6-yl)amino)-pyrimidin-4-yl)thiazol-4-yl)-2-fluorophenyl)-4-(difluoromethoxy)-isoindoline-2-sulfonamide], the IC50 stood at 102 nM.
